“And” between values parts separate entries of the source, which are not always exact repeats. Identical values can stand only once. Inconclusive results and toxic doses are left out.

The test system of the test is CD2F1 mice, L1210 leukemia ip, survival T/C. As to the kind of experiment: NCI In Vivo Anticancer Drug Screen. Data for tumor model L1210 Leukemia (intraperitoneal) in CD2F1 (CDF1) mice. The following applies: higher = longer survival. A digest of the protocol: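 Implant tumor; dose compound or vehicle; measure endpoint in both groups; report treated divided by control.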

[1] abbreviates: endpoint: mean survival time, dose: 100.0 mg/kg/injection, schedule: Q01DX009 (ip), vehicle: saline with Tween-80.
Setting [2] is: endpoint: mean survival time, dose: 100.0 mg/kg/injection, schedule: Q04DX003 (ip), vehicle: saline with Tween-80.
Setting [3] is: endpoint: mean survival time, dose: 200.0 mg/kg/injection, schedule: Q04DX003 (ip), vehicle: saline with Tween-80.
The mark [4] stands for this setting: endpoint: mean survival time, dose: 400.0 mg/kg/injection, schedule: Q04DX003 (ip), vehicle: saline with Tween-80.
Setting [5] is: endpoint: mean survival time, dose: 100.0 mg/kg/injection, schedule: Q04DX003 (ip), vehicle: saline.
Where [6] appears, read: endpoint: mean survival time, dose: 200.0 mg/kg/injection, schedule: Q04DX003 (ip), vehicle: saline.
Where [7] appears, read: endpoint: mean survival time, dose: 400.0 mg/kg/injection, schedule: Q04DX003 (ip), vehicle: saline.
[8] abbreviates: endpoint: mean survival time, dose: 200.0 mg/kg/injection, schedule: Q01DX009 (ip), vehicle: saline with Tween-80.
Setting [9] is: endpoint: mean survival time, dose: 400.0 mg/kg/injection, schedule: Q01DX009 (ip), vehicle: saline with Tween-80.

With `O=[n+]1c2ccccc2n([O-])c2ccccc21.[Cl][Ni][Cl]`, the T/C reads like this: (endpoint: median survival time, dose: 1.56 mg/kg/injection, schedule: Q01DX009 (ip), vehicle: saline with Tween-80) 98 % of control; (endpoint: median survival time, dose: 3.12 mg/kg/injection, schedule: Q01DX009 (ip), vehicle: saline with Tween-80) 92 % of control; (endpoint: median survival time, dose: 6.25 mg/kg/injection, schedule: Q01DX009 (ip), vehicle: saline with Tween-80) 103 % of control; (endpoint: median survival time, dose: 12.5 mg/kg/injection, schedule: Q01DX009 (ip), vehicle: saline with Tween-80) 109 % of control; (endpoint: median survival time, dose: 25.0 mg/kg/injection, schedule: Q01DX009 (ip), vehicle: saline with Tween-80) 113 % of control.
Consider `O=C(c1cc2c3ccccc3ccc2c2ccccc12)C(Br)Br`, for which the T/C is 106 % of control (endpoint: mean survival time, dose: 25.0 mg/kg/injection, schedule: Q01DX009 (ip), vehicle: saline with Tween-80); 103 % of control (endpoint: mean survival time, dose: 50.0 mg/kg/injection, schedule: Q01DX009 (ip), vehicle: saline with Tween-80); 100 % of control under setting [1]; 93 % of control under setting [2].
Consider `CC12C(=O)C(C(c3ccccc3)=C1c1ccccc1)C(C(=O)O)C2C(=O)O` (configuration not stated), for which the T/C under setting [2] was 89 % of control, the T/C under setting [3] was 93 % of control and the T/C under setting [4] was 101 % of control.
On to `Nc1nc(=O)n(C2OC(CO)C(O)C2O)c2nc[nH]c12` (configuration not stated), for which the T/C (endpoint: mean survival time, dose: 6.25 mg/kg/injection, schedule: Q01DX005 (ip), vehicle: water) was 98 % of control; the T/C (endpoint: mean survival time, dose: 12.5 mg/kg/injection, schedule: Q01DX005 (ip), vehicle: water) is 90 % of control; the T/C (endpoint: mean survival time, dose: 25.0 mg/kg/injection, schedule: Q01DX005 (ip), vehicle: water) was 88 % of control; the T/C (endpoint: mean survival time, dose: 50.0 mg/kg/injection, schedule: Q01DX005 (ip), vehicle: water) was 92 % of control and 93 % of control; the T/C (endpoint: mean survival time, dose: 100.0 mg/kg/injection, schedule: Q01DX005 (ip), vehicle: water) is 87 % of control and 90 % of control.
`O=C(N/N=C(/C(=N/NC(=O)c1ccccc1)c1ccccc1)c1ccccc1)c1ccccc1`: the T/C reads like this: under setting [3], 91 % of control; under setting [4], 87 % of control.
Consider `CCSSCCN`, for which the T/C is 94 % of control (endpoint: mean survival time, dose: 100.0 mg/kg/injection, schedule: Q01DX009 (ip), vehicle: saline); 93 % of control under setting [5]; 93 % of control (endpoint: mean survival time, dose: 200.0 mg/kg/injection, schedule: Q01DX009 (ip), vehicle: saline); 89 % of control under setting [6]; 102 % of control (endpoint: mean survival time, dose: 400.0 mg/kg/injection, schedule: Q01DX009 (ip), vehicle: saline); 97 % of control under setting [7].
In the case of `Cc1cc(NCCCCCCNc2cc(C)nc3cc(N(C)C)ccc23)c2ccc(N(C)C)cc2n1`, the T/C was 121 % of control (endpoint: median survival time, dose: 3.12 mg/kg/injection, schedule: Q01DX009 (ip), vehicle: distilled water + Tween-80 + alcohol); 152 % of control and 158 % of control (endpoint: median survival time, dose: 25.0 mg/kg/injection, schedule: Q01DX009 (ip), vehicle: distilled water + Tween-80 + alcohol).
Turning to `CN1CCc2c3n(c4ccccc24)C(=O)CCC31` (configuration not stated), the T/C reads like this: (endpoint: mean survival time, dose: 6.25 mg/kg/injection, schedule: Q04DX003 (ip), vehicle: saline sonified) 101 % of control; (endpoint: mean survival time, dose: 12.5 mg/kg/injection, schedule: Q04DX003 (ip), vehicle: saline sonified) 90 % of control; (endpoint: mean survival time, dose: 25.0 mg/kg/injection, schedule: Q04DX003 (ip), vehicle: saline sonified) 97 % of control.
For the molecule `O=[N+]([O-])c1ccc(N/N=C2\C(c3ccccc3)=C(c3ccccc3)CC2Cl)c([N+](=O)[O-])c1` (configuration not stated), the T/C (endpoint: mean survival time, dose: 100.0 mg/kg/injection, schedule: Q01DX001 (ip), vehicle: saline with Tween-80) is 90 % of control; the T/C (endpoint: mean survival time, dose: 200.0 mg/kg/injection, schedule: Q01DX001 (ip), vehicle: saline with Tween-80) was 101 % of control; the T/C (endpoint: mean survival time, dose: 400.0 mg/kg/injection, schedule: Q01DX001 (ip), vehicle: saline with Tween-80) was 96 % of control.
In the case of `Cc1ccc(Cl)cc1NS(=O)(=O)c1cccc([N+](=O)[O-])c1`, the T/C under setting [2] was 98 % of control, the T/C under setting [3] was 106 % of control and the T/C under setting [4] is 88 % of control.
Regarding `C[n+]1ccccc1/C=C/c1ccccn1`, the T/C is, setting by setting: (endpoint: mean survival time, dose: 5.3 mg/kg/injection, schedule: Q01DX009 (ip), vehicle: saline with Tween-80) 97 % of control; (endpoint: mean survival time, dose: 6.25 mg/kg/injection, schedule: Q04DX003 (ip), vehicle: saline) 95 % of control; (endpoint: mean survival time, dose: 8.0 mg/kg/injection, schedule: Q01DX009 (ip), vehicle: saline with Tween-80) 100 % of control; (endpoint: mean survival time, dose: 12.0 mg/kg/injection, schedule: Q01DX009 (ip), vehicle: saline with Tween-80) 100 % of control; (endpoint: mean survival time, dose: 12.5 mg/kg/injection, schedule: Q04DX003 (ip), vehicle: saline) 98 % of control; (endpoint: mean survival time, dose: 18.0 mg/kg/injection, schedule: Q01DX009 (ip), vehicle: saline with Tween-80) 92 % of control. In addition, the T/C (endpoint: mean survival time, dose: 25.0 mg/kg/injection, schedule: Q04DX003 (ip), vehicle: saline) is 92 % of control.
Take `CC(C)CC(NC(=O)c1ccccc1)C(N)=O` (configuration not stated): the T/C runs as follows: under setting [2], 101 % of control; under setting [3], 97 % of control; under setting [4], 92 % of control.
As to `O=C1NC(=O)c2cc(C(F)(F)F)ccc21`, the T/C reads like this: (endpoint: mean survival time, dose: 6.25 mg/kg/injection, schedule: Q01DX009 (ip), vehicle: saline with Tween-80) 95 % of control; (endpoint: mean survival time, dose: 12.5 mg/kg/injection, schedule: Q01DX009 (ip), vehicle: saline with Tween-80) 89 % of control; (endpoint: mean survival time, dose: 12.5 mg/kg/injection, schedule: Q04DX003 (ip), vehicle: saline with Tween-80) 101 % of control; (endpoint: mean survival time, dose: 25.0 mg/kg/injection, schedule: Q04DX003 (ip), vehicle: saline with Tween-80) 100 % of control.
With `ClP1(c2ccccc2)=NP(Cl)(c2ccccc2)=NP(Cl)(c2ccccc2)=NP(Cl)(c2ccccc2)=N1` (configuration not stated), the T/C is, setting by setting: under setting [2], 96 % of control; under setting [3], 94 % of control.
As for `COc1ccc(CCNC(=O)CCN2C(=O)CCC2=O)cc1OC`, the T/C is 98 % of control under setting [1]; 101 % of control (endpoint: mean survival time, dose: 100.0 mg/kg/injection, schedule: Q04DX003 (ip), vehicle: saline sonified); 96 % of control under setting [8]; 101 % of control (endpoint: mean survival time, dose: 200.0 mg/kg/injection, schedule: Q04DX003 (ip), vehicle: saline sonified); 100 % of control under setting [9]; 98 % of control (endpoint: mean survival time, dose: 400.0 mg/kg/injection, schedule: Q04DX003 (ip), vehicle: saline sonified).
With `Ic1ncnc2c1ncn2C1CCCO1` (configuration not stated), the T/C (endpoint: mean survival time, dose: 50.0 mg/kg/injection, schedule: Q04DX003 (ip), vehicle: saline) was 96 % of control; the T/C under setting [5] was 94 % of control; the T/C under setting [6] is 94 % of control.
Regarding `Cc1cc2ccc(OC(=O)c3ccc(N=C(N)N)cc3)cc2oc1=O`, the T/C reads like this: under setting [1], 91 % of control; under setting [8], 91 % of control; under setting [9], 86 % of control.
Turning to `c1ccc(-c2nnnn2-c2ccccc2)cc1`, the T/C runs as follows: under setting [5], 101 % of control; under setting [6], 98 % of control; under setting [7], 104 % of control.
`N#[N+]c1cn(C2CC(O)C(CO)O2)c(=O)[nH]c1=O` (configuration not stated): the T/C was 101 % of control under setting [2], 98 % of control under setting [3] and 118 % of control under setting [4].
On to `N#CC1c2ccccc2C=NN1C(=O)N(c1ccccc1)c1ccccc1` (configuration not stated), for which the T/C was 103 % of control (endpoint: mean survival time, dose: 100.0 mg/kg/injection, schedule: Q04DX003 (ip), vehicle: other); 105 % of control (endpoint: mean survival time, dose: 200.0 mg/kg/injection, schedule: Q04DX003 (ip), vehicle: other); 105 % of control (endpoint: mean survival time, dose: 400.0 mg/kg/injection, schedule: Q04DX003 (ip), vehicle: other).
With `CN(C)C(=O)OCC#CCOC(=O)N(C)C`, the T/C is 101 % of control (endpoint: mean survival time, dose: 100.0 mg/kg/injection, schedule: Q04DX002 (ip), vehicle: saline) and 86 % of control (endpoint: mean survival time, dose: 200.0 mg/kg/injection, schedule: Q04DX002 (ip), vehicle: saline).
As for `CCC1(O)C(=O)OCc2c1cc1n(c2=O)Cc2cc3ccc(/C=N/N=C(N)N)cc3nc2-1` (configuration not stated), the T/C reads like this: (endpoint: median survival time, dose: 10.0 mg/kg/injection, schedule: Q04DX002 (ip), vehicle: saline with Tween-80) 106 % of control; (endpoint: median survival time, dose: 20.0 mg/kg/injection, schedule: Q04DX002 (ip), vehicle: saline with Tween-80) 113 % of control; (endpoint: median survival time, dose: 40.0 mg/kg/injection, schedule: Q04DX002 (ip), vehicle: saline with Tween-80) 102 % of control; (endpoint: median survival time, dose: 80.0 mg/kg/injection, schedule: Q04DX002 (ip), vehicle: saline with Tween-80) 102 % of control.
Turning to `O=C(Nc1ccccc1)c1ccccc1C1(O)c2ccccc2-c2ccccc21`, the T/C reads like this: under setting [1], 88 % of control; under setting [8], 92 % of control; under setting [9], 91 % of control.
